Results from patent publication US20260373138A1, “COMPOUNDS WITH ANTIFUNGAL PROPERTIES” (priority 2023, published 2026).

Tested on: A. fumigatus CEA10 reference strain
Assay: Fluconazole potentiator screen: MIC by CLSI microbroth dilution with and without fluconazole
Format: cell-based, Aspergillus fumigatus
Settings: for MIC: Aspergillus fumigatus, read-out: MIC (ug/mL) (−) Fluc; for MIC / MIC (ug/mL) (+) Fluc: 18 h; for MIC (ug/mL) (+) Fluc: with 32 μg/ml fluconazole, normoxia, GMM, 37 °C; for potency / potentiation of fluconazole (in words): structure-activity statements, fluconazole potentiator screen; for loss in potentiating the fluconazole: analogs of MBX-7591

| Structure (SMILES) | MIC [µg/mL] | MIC (ug/mL) (+) Fluc [µg/mL] | potency / potentiation of fluconazole (in words) | loss in potentiating the fluconazole | increase in potentiation of fluconazole (morpholine series, para-fluorophenyl substitution) [fold] |
| --- | --- | --- | --- | --- | --- |
| O=C(c1ccsc1)N1CCN(Cc2ccc(COc3ccncc3)cc2)CC1 [MBX-8030] | 1.9 | 0.50 | – | – | – |
| O=C(c1cccc(F)c1)N1CCC(Cc2ccc(CN3CCOCC3)cc2)CC1 [MBX-8032] | 3.1 | 8.80 | – | – | – |
| O=C(c1ccsc1)N1CCC(Cc2ccc(COc3cncnc3)cc2)CC1 [MBX-8033] | 39 | 27.00 | complete loss of activity | – | – |
| O=C(c1ccsc1)N1CCC(Cc2ccc(COc3cccnc3)cc2)CC1 [MBX-8065] | > 19 | >19 | complete loss of activity | – | – |
| O=C(c1ccsc1)N1CCC(c2ccc(COc3ccncc3)cc2)CC1 [MBX-8066] | 1.2 | 0.90 | – | – | – |
| O=C(c1ccsc1)N1CCC(Cc2ccc(CNc3ccncc3)cc2)CC1 [MBX-8085] | > 19 | >19 | – | – | – |
| O=C(c1ccsc1)N1CCC(Cc2ccc(COc3ccc4scnc4c3)cc2)CC1 [MBX-8086] | > 19 | >19 | – | – | – |
| CCc1ccc(C(=O)N2CCC(Cc3ccc(COc4ccncc4)cc3)CC2)cc1 [MBX-8087] | 13 | >18 | – | – | – |
| N#Cc1ccc(C(=O)N2CCC(Cc3ccc(COc4ccncc4)cc3)CC2)cc1 [MBX-8088] | 6.5 | 14.50 | antagonistic effect | – | – |
| O=C(c1ccc(C(F)(F)F)nc1)N1CCC(Cc2ccc(COc3ccncc3)cc2)CC1 [MBX-8089] | > 22 | >20 | did not result in appreciable increase in potency | – | – |
| O=C(N1CCC(Cc2ccc(COc3ccncc3)cc2)CC1)C12CC(C1)C2 [MBX-8090] | 18.8 | 13.30 | – | – | – |
| O=C(c1ccccc1Cl)N1CCC(Cc2ccc(COc3ccncc3)cc2)CC1 [MBX-8091] | > 21 | >21 | – | – | – |
| O=C(c1cccc(Cl)c1)N1CCC(Cc2ccc(COc3ccncc3)cc2)CC1 [MBX-8092] | 21 | >21 | – | – | – |
| COC(=O)c1ccc(C(=O)N2CCC(Cc3ccc(COc4ccncc4)cc3)CC2)cc1 [MBX-8093] | > 22 | >20 | – | – | – |
| CC(C)(C)c1ccc(C(=O)N2CCC(Cc3ccc(COc4ccncc4)cc3)CC2)cc1 [MBX-8094] | > 22 | >22 | – | – | – |
| O=C(c1ccc(Cl)s1)N1CCC(Cc2ccc(COc3ccncc3)cc2)CC1 [MBX-8095] | 6.7 | 3.80 | – | more than 4 fold | – |
| O=C(c1ccc2sccc2c1)N1CCC(Cc2ccc(COc3ccncc3)cc2)CC1 [MBX-8096] | > 22 | >22 | – | – | – |
| O=C(c1ccc2scnc2c1)N1CCC(Cc2ccc(COc3ccncc3)cc2)CC1 [MBX-8097] | > 22 | >22 | – | – | – |
| O=C(c1cncs1)N1CCC(Cc2ccc(COc3ccncc3)cc2)CC1 [MBX-8098] | 5.5 | 2.50 | – | more than 4 fold | – |
| O=C(c1cscn1)N1CCC(Cc2ccc(COc3ccncc3)cc2)CC1 [MBX-8099] | 7.81 | 3.10 | – | more than 4 fold | – |

| Structure (SMILES) | MIC [µg/mL] | MIC (ug/mL) (+) Fluc [µg/mL] | potency / potentiation of fluconazole (in words) | loss in potentiating the fluconazole | increase in potentiation of fluconazole (morpholine series, para-fluorophenyl substitution) [fold] |
| --- | --- | --- | --- | --- | --- |
| O=C(O)c1ccc(C(=O)N2CCC(Cc3ccc(COc4ccncc4)cc3)CC2)cc1 [MBX-8138] | > 21 | >21 | – | – | – |
| CC(C)(O)c1ccc(C(=O)N2CCC(Cc3ccc(COc4ccncc4)cc3)CC2)cc1 [MBX-8139] | > 22 | >22 | – | – | – |
| Cc1cnccc1OCc1ccc(CC2CCN(C(=O)c3ccsc3)CC2)cc1 [MBX-8140] | > 20 | >20 | complete loss of activity | – | – |
| Cc1cc(OCc2ccc(CC3CCN(C(=O)c4ccsc4)CC3)cc2)ccn1 [MBX-8141] | > 20 | >20 | complete loss of activity | – | – |
| COc1cc(OCc2ccc(CC3CCN(C(=O)c4ccsc4)CC3)cc2)ccn1 [MBX-8142] | > 21 | >21 | complete loss of activity | – | – |
| Cc1ccc(S(=O)(=O)N2CCC3(CC2)CC(CCOc2ccncc2)CCO3)cn1 (stereo not drawn) [MBX-8143] | 10.8 | 3.81 | – | – | – |
| Cc1ccc(S(=O)(=O)N2CCC3(CC2)CC(CCOc2ccncc2)CCO3)s1 (stereo not drawn) [MBX-8144] | 0.77 | 0.21 | – | – | – |
| O=S(=O)(c1ccc(F)cc1)N1CCC(Cc2ccc(CN3CCOCC3)cc2)CC1 [MBX-8145] | 0.3 | 0.08 | – | – | 6 |
| O=S(=O)(c1ccc(Cl)cc1)N1CCC(Cc2ccc(CN3CCOCC3)cc2)CC1 [MBX-8146] | 0.28 | 0.14 | maintain activity in the morpholine series | – | – |
| c1cc(OCc2ccc(CC3CCNCC3)cc2)ccn1 [MBX-8147] | > 14 | >14 | – | – | – |
| O=C(c1ccsc1)N1CCC(Cc2ccc(COc3ccnc(O)c3)cc2)CC1 [MBX-8185] | > 20 | >20 | complete loss of activity | – | – |
| O=S(=O)(c1ccc(C(F)(F)F)nc1)N1CCC(Cc2ccc(CN3CCOCC3)cc2)CC1 [MBX-8186] | 4.8 | 1.90 | maintain activity in the morpholine series | – | – |
| O=S(=O)(c1cccc(Cl)c1)N1CCC(Cc2ccc(CN3CCOCC3)cc2)CC1 [MBX-8187] | 4.45 | 2.50 | – | – | – |
| O=C(c1ccc(CC2CCN(S(=O)(=O)c3cccc(F)c3)CC2)cc1)N1CCOCC1 [MBX-8188] | > 22 | >22 | not tolerated | – | – |
| O=S(=O)(c1cccc(F)c1)N1CCN(Cc2ccc(CN3CCOCC3)cc2)CC1 [MBX-8189] | > 21 | >21 | – | – | – |
| CC1CN(Cc2ccc(CC3CCN(S(=O)(=O)c4cccc(F)c4)CC3)cc2)CC(C)O1 (stereo not drawn) [MBX-8190] | > 23 | >23 | not tolerated | – | – |
| O=C(c1ccsc1)N1CCC(Cc2ccc(COc3cc[n+]([O-])cc3)cc2)CC1 [MBX-8191] | > 20 | >20 | complete loss of activity | – | – |
| O=C(c1ccsc1)N1CCC(Cc2ccc(CO)cc2)CC1 [MBX-8192] | > 15.8 | >15.8 | – | – | – |
| O=S(=O)(c1ccc(Cl)s1)N1CCC(Cc2ccc(CN3CCOCC3)cc2)CC1 [MBX-8193] | 0.63 | 0.18 | – | – | – |
| O=C(c1ccsc1)N1CCC(Cc2ccc(COc3cnc4scnc4c3)cc2)CC1 [MBX-8219] | 2.81 | 2.81 | – | – | – |

| Structure (SMILES) | MIC [µg/mL] | MIC (ug/mL) (+) Fluc [µg/mL] | potency / potentiation of fluconazole (in words) | loss in potentiating the fluconazole | increase in potentiation of fluconazole (morpholine series, para-fluorophenyl substitution) [fold] |
| --- | --- | --- | --- | --- | --- |
| NCc1ccc(OCc2ccc(CC3CCN(C(=O)c4ccsc4)CC3)cc2)cc1 [MBX-8220] | > 21 | >21 | – | – | – |
| O=S(=O)(c1cccc(F)c1)N1CCC(Cc2ccc(CN3CC4CC(C3)O4)cc2)CC1 [MBX-8221] | > 17 | >22 | – | – | – |
| O=S(=O)(c1cccc(F)c1)N1CCC(Cc2ccc(N3CCOCC3)cc2)CC1 [MBX-8222] | > 21 | >21 | – | – | – |
| O=S(=O)(c1cc(F)cc(F)c1)N1CCC(Cc2ccc(CN3CCOCC3)cc2)CC1 [MBX-8223] | 12.6 | 3.50 | – | – | – |
| O=S(=O)(c1ccc(C(F)(F)F)cc1)N1CCC(Cc2ccc(CN3CCOCC3)cc2)CC1 [MBX-8224] | 1.1 | 0.50 | – | – | – |
| Nc1cc(OCc2ccc(CC3CCN(C(=O)c4ccsc4)CC3)cc2)ccn1 [MBX-8226] | 20 | 11.00 | – | – | – |
| O=C(c1ccsc1)N1CCC(Cc2ccc(COc3ccncc3)cc2)C1 (stereo not drawn) [MBX-8240] | 4.73 | 2.37 | – | – | – |
| O=S(=O)(c1ccsc1)N1CC2(CN(CCOc3ccncc3)C2)C1 [MBX-8241] | > 18 | >18 | – | – | – |
| O=C1c2ccsc2CCN1Cc1ccc(COc2ccncc2)cc1 [MBX-8243] | 8.76 | 4.92 | – | – | – |
| O=S(=O)(c1cccc(F)c1)N1CCC(Cc2ccc(CN3CC4(COC4)C3)cc2)CC1 [MBX-8244] | > 22 | >22 | – | – | – |
| O=S(=O)(c1cccs1)N1CCC2(CC1)CC(CCN1CCOCC1)CCO2 (stereo not drawn) [MBX-8245] | > 20 | >20 | – | – | – |
| O=S(=O)(c1cccs1)N1CCC2(CC1)CC(CCO)CCO2 (stereo not drawn) [MBX-8248] | > 17 | >17 | – | – | – |
| O=C(c1csc(Cl)c1)N1CCN(Cc2ccc(CN3CCOCC3)cc2)CC1 [MBX-8249] | > 21 | 21.00 | – | – | – |
| O=S(=O)(c1cccs1)N1CCC2(CC1)C[C@H](CCOc1ccncc1)CCO2 [MBX-8250] | 2.64 | 0.52 | – | – | – |
| O=S(=O)(c1cccs1)N1CCC2(CC1)C[C@@H](CCOc1ccncc1)CCO2 [MBX-8251] | 5.28 | 1.32 | – | – | – |
| O=S(=O)(c1ccccc1F)N1CCC(Cc2ccc(CN3CCOCC3)cc2)CC1 [MBX-8252] | 5.4 | 1.07 | – | – | – |
| O=C(c1ccsc1)N1CCC(Cc2ccc(COc3ccnc(Cl)c3)cc2)CC1 [MBX-8253] | > 21 | >21 | – | – | – |
| CC1CC(Cc2ccc(CN3CCOCC3)cc2)CCN1S(=O)(=O)c1cccc(F)c1 (stereo not drawn) [MBX-8281] | 7.03 | 1.40 | – | – | – |
| O=S(=O)(c1ccc(F)cc1)N1CCC(Oc2ccc(CN3CCOCC3)cc2)CC1 [MBX-8282] | 5.43 | 1.36 | – | – | – |
